According to patent US20260250337A1, “HYBRID ANTIMICROBIAL PEPTIDES” (UNIVERSIDADE FEDERAL DO ABC, priority 2023, published 2026):
Entries after “also recorded” stand apart in the source; their conditions may differ. No end group written: not given here.

Experiments:
[1] = tested on: E. cloacae β-12; experiment: Liquid growth inhibition assay, MIC; assay type: cell-based, Enterobacter cloacae; conditions: 37° C., 18 h
Protocol: (§1) Initially, the antimicrobial activity was determined by liquid growth inhibition assays, as previously described by Pedron et al.^62. Briefly, Peptone Broth and Potato Dextrose Broth (Invitrogen) were used for antibacterial and antifungal assays, respectively. Two-fold serial dilutions of peptides (0.09-50 μmol L^−1) and microorganisms (Serratia marcescens ATCC 4112, Enterobacter cloacae β-12, Micrococcus luteus A270, Bacillus megaterium ATCC 10778, Bacillus subtilis ATCC 6633, Candida albicans MDM8, and Candida tropicalis IOC 4560) were incubated at 37° C. for 18 h (for bacteria) or 24 h (for fungi), and microbial growth was assessed by absorbance measurements at 595 nm. Experiments were performed in three biological repeats.

[2] = tested on: S. marcescens ATCC 4112; experiment: Liquid growth inhibition assay, MIC; assay type: cell-based, Serratia marcescens; conditions: 37° C., 18 h
Protocol: as §1

[3] = tested on: bacterial strains; experiment: Antimicrobial activity over the panel of strains; assay type: cell-based; conditions: range over strains tested
Protocol: as §1
(§2) Method. The minimal inhibitory concentration (MIC) against the ESKAPE pathogens was determined using the broth microdilution method^81, 82 in Luria-Bertani (LB) medium. The MIC value was defined as the lowest concentration of peptide at which no microbial growth was observed. A. baumannii ATCC19606, E. coli ATCC11775, E. coli AIC221, E. coli AIC222, K. pneumoniae ATCC13883, S. aureus ATCC12600 P. aeruginosa PAO1, and P. aeruginosa PA14 were incubated on agar plates, and after 24 h, three isolated colonies were inoculated to 5 mL of Luria-Bertani (LB) broth and maintained at 37° C. overnight with shaking. Peptides were then added to 96-well polystyrene microtiter plates at concentrations ranging from 0 to 128 μmol L^−1, and 5×10^5 CFU mL^−1 of each bacterium was inoculated in each well. The plates were incubated at 37° C. for 24 h. Bacterial growth was measured using a microplate reader at 610 nm. Three independent replicates were performed.

[4] = tested on: M. luteus A270; experiment: Liquid growth inhibition assay, MIC; assay type: cell-based, Micrococcus luteus; conditions: 37° C., 18 h
Protocol: as §1

[5] = tested on: S. epidermidis ATCC 12228; experiment: Liquid growth inhibition assay, MIC; assay type: cell-based; conditions: 37° C., 18 h
[6] = Resistance to degradation in fetal bovine serum; assay type: in vitro ADME; conditions: for remaining at 0.5 h: read-out: remaining peptide, 30 min; for remaining at 1 h: read-out: remaining peptide, 1 h; for remaining at 2 h: read-out: remaining peptide, 2 h
Protocol: The resistance to proteolytic degradation of the hybrid peptides was assessed by exposing them for 6 h to serum peptidases in a fetal bovine serum solution^68, 69 (FIG. 5a and Table S4). The peptide degradation kinetics were calculated by integrating the peak area of the peak in relation to the peptide at the beginning of the experiment (time=0) and comparing it to the integrated peak area relative to the peptides after exposure to the enzymes at time points: 0.5, 1, 2, 4, and 6 h (FIG. 5a and Table S4). […] However, AV was resistant to degradation against proteases, with almost 40% peptide content remaining after 4 h of exposure (FIG. 5a and Table S4). […] VP was almost entirely degraded after 30 min (22% of peptide remaining). […] D-amino acid substitutions have been used as alternatives to prevent the degradation of AMPs. For example, Qiu et. al. described a protonectin analog with a D-Lys residue in position 10 as an alternative to protonectin; this analog is not degraded and has higher antimicrobial activity against bacteria and fungi than the original peptide.
Methods. Stability assays were performed following the protocol described by Torres et al.^71. Briefly, a peptide solution was added to GIBCO fetal bovine serum diluted to 25% in water and kept at 37° C. The degradation kinetics were monitored by liquid chromatography and the percentage of peptide remaining was calculated by integrating the peptide peak area. The experiments were performed as three independent replicates, and aliquots were taken at 0, 0.5, 1, 2, 4, and 6 h.

[7] = tested on: C. albicans MDM8; experiment: Liquid growth inhibition assay, MIC (antifungal); assay type: cell-based, Candida albicans; conditions: 37° C., 24 h
Protocol: as §1

[8] = tested on: human erythrocytes; experiment: Hemolytic activity assay; assay type: cell-based; conditions: for hemolytic activity: 0.1 to 100 μmol L^−1; for MHC / Hemolytic activity, concentration of peptide needed to kill 10% of red blood cells: human erythrocytes, 1 h; for MHC: room temperature, concentration with approximately 0% of hemolytic activity
Protocol: Method. Assays against freshly collected human erythrocytes were performed following protocols described by Pedron et al. 62. Briefly, peptide aliquots at concentrations ranging from 0.1 to 100 μmol L−1 were incubated with a suspension of erythrocytes at room temperature for 1 h. The samples were then centrifuged, and the absorbance of the supernatant was measured at 405 nm. The MHC (maximal non-hemolytic concentration) was determined as the maximal concentration at which 100% of the erythrocytes were viable. The surfactant SDS and PBS buffer were used as positive88, 89 and negative controls, respectively. Sodium heparin was used as an anticoagulant when collecting human blood. Three biological repeats were performed.

[9] = tested on: C. tropicalis IOC 4560; experiment: Liquid growth inhibition assay, MIC (antifungal); assay type: cell-based, Candida tropicalis; conditions: 37° C., 24 h
Protocol: as §1

[10] = tested on: B. megaterium ATCC 10778; experiment: Liquid growth inhibition assay, MIC; assay type: cell-based, Bacillus megaterium; conditions: 37° C., 18 h
Protocol: as §1

[11] = tested on: E. coli AIC221; experiment: Broth microdilution MIC, ESKAPE pathogens; assay type: cell-based; conditions: LB, 37° C., 24 h
Protocol: as §2

[12] = tested on: P. aeruginosa PAO1; experiment: Broth microdilution MIC, ESKAPE pathogens; assay type: cell-based; conditions: LB, 37° C., 24 h
Protocol: as §2

[13] = tested on: K. pneumoniae ATCC13883; experiment: Broth microdilution MIC, ESKAPE pathogens; assay type: cell-based; conditions: LB, 37° C., 24 h
Protocol: as §2

[14] = tested on: A. baumannii ATCC19606; experiment: Broth microdilution MIC, ESKAPE pathogens; assay type: cell-based; conditions: LB, 37° C., 24 h
Protocol: as §2

[15] = tested on: E. coli ATCC11775; experiment: Broth microdilution MIC, ESKAPE pathogens; assay type: cell-based; conditions: LB, 37° C., 24 h
Protocol: as §2

[16] = tested on: E. coli AIC222; experiment: Broth microdilution MIC, ESKAPE pathogens; assay type: cell-based; conditions: LB, 37° C., 24 h
Protocol: as §2

[17] = tested on: P. aeruginosa PA14; experiment: Broth microdilution MIC, ESKAPE pathogens; assay type: cell-based; conditions: LB, 37° C., 24 h
Protocol: as §2

[18] = tested on: S. aureus ATCC12600; experiment: Broth microdilution MIC, ESKAPE pathogens; assay type: cell-based; conditions: LB, 37° C., 24 h
Protocol: as §2

[19] = tested on: MCF-7 human breast cancer cells; experiment: Anticancer activity, MTT assay; assay type: cell-based; conditions: MTT
Protocol: The anticancer activity assays were performed using MCF-10A human breast epithelial cells and MCF-7 mammary cancer cells as previously described by Pedron et al. 86. Briefly, the day before treatment, the cells were incubated at 37° C. and 5% CO2 for 24 h. The cells were treated with peptides ranging from 12.5 to 100 μmol L^−1 (MCF10-A cells) and 0.8 to 100 μmol L^−1 (MCF-7 cells) for 4 h and 24 h at 37° C., and cell viability was measured using 3-(4,5-Dimethylthiazol-2-yl)-2,5-diphenyltetrazolium bromide (MTT) assays 87. Three independent replicates were performed in each case.

[20] = bovine, fetal bovine serum, 25% in water, fetal bovine serum 25% in water, 37° C., 30 min
[21] = bovine, fetal bovine serum, 25% in water, fetal bovine serum 25% in water, 37° C.

Substance | MIC E. cloacae β-12 [1] [µM] | MIC S. marcescens ATCC 4112 [2] [µM] | MIC M. luteus A270 [4] [µM] | MIC S. epidermidis ATCC 12228 [5] [µM] | remaining at 0.5 h [6, 20] [%] | resistance to degradation ([6]; fetal bovine serum) | MIC C. albicans MDM8 [7] [µM] | hemolytic activity [8] | MHC [8] [µmol/L] | MIC C. tropicalis IOC 4560 [9] [µM] | MIC B. megaterium ATCC 10778 [10] [µM] | MIC E. coli AIC221 [11] [µM] | MIC P. aeruginosa PAO1 [12] [µM] | MIC K. pneumoniae ATCC13883 [13] [µM] | MIC A. baumannii ATCC19606 [14] [µM] | MIC E. coli ATCC11775 [15] [µM] | MIC E. coli AIC222 [16] [µM] | MIC P. aeruginosa PA14 [17] [µM] | MIC S. aureus ATCC12600 [18] [µM] | Hemolytic activity, concentration of peptide needed to kill 10% of red blood cells [8] [µmol/L] | also measured
FLGSLWRKAGTVF-NH2 [VD] | >50 | 12.5 | 25 | >50 | ~10 | the greatest resistance to proteolytic degradation | 25 | minimal hemolytic activity; also recorded: no hemolytic activity was detected | >100 | 6.3 | 6.3 | – | – | – | – | – | – | – | – | – | MIC range of the peptide over the strains [3]: 6.3 to 25 µM; remaining at 6 h ([6]; bovine, fetal bovine serum, 25% in water, fetal bovine serum 25% in water, 37° C., 6 h, read-out: remaining peptide, 6 h): ~50%
FLGTLWGGAKGVF-NH2 [VP] | >50 | >50 | >50 | >50 | 22 | – | >50 | minimal hemolytic activity | >100 | >50 | >50 | 128 | 128 | 128 | 128 | 128 | 128 | 128 | 128 | 100 | remaining at 1 h [6, 21]: < 20%; remaining at 2 h [6, 21]: < 10%; remaining peptide, 30 min ([6]; fetal bovine serum 25% in water, 37° C., 30 min): ~20%
H-GLLKRIKTLL-NH2 [Anoplin, reference compound] | 3.1 | 6.3 | 1.6 | 6.3 | ~20 | – | 1.6 | – | 50 | 1.6 | 0.8 | – | – | – | – | – | – | – | – | 50 | remaining at 1 h [6, 21]: ~20%; remaining at 2 h [6, 21]: ~10%
ILGTILGLLKGL-NH2 [Protonectin, reference compound] | 25 | 6.3 | 3.1 | 25 | – | quickly degraded | 12.5 | – | 12.5 | 12.5 | 3.1 | 16 | 128 | 64 | 16 | 16 | 8 | 128 | 8 | 12.5 | MCF-7 4 h LD50 ([19]; MCF-7, 4 h): 25 µmol/L; MCF-7 24 h LD50 ([19]; MCF-7, 24 h): 25 µmol/L
